Assays:
[1] = system: Jurkat lymphocytes; assay: Efflux kinetics from endosomes to plasma membrane by back exchange; type: cell-based, human
Procedure: FIG. 11. Quantification of efflux kinetics of receptor 10 from endosomes to the plasma membrane of Jurkat lymphocytes by back exchange. Cells treated with 10 (1 μM, 1 hour) were cooled to 4° C. and cell surface fluorophores removed (>90%) by repeated washing with ice-cold back exchange media containing BSA (1%) and methyl-β-cyclodextrin (2 mM). Cells were resuspended in back exchange media at 37° C. to resume recycling, cellular fluorescence was quantified by flow cytometry, and loss of fluorescence was evaluated with a one-site exponential decay model.
Quantification of efflux kinetics of receptor 10 from endosomes to the plasma membrane by back exchange (FIG. 11). The efficiency of removal of 10 from the plasma membrane was examined prior to analysis of efflux kinetics. Jurkat lymphocytes (3×10^6) were suspended in ice-cold serum free recycling media (1.5 mL) and maintained on ice (2 min) to block plasma membrane recycling. These cells were resuspended in ice-cold serum free recycling media (1.5 mL, 1% DMSO) containing 10 (1 μM) and maintained on ice (10 min) to allow association of 10 with the plasma membrane. Receptor-treated cells were washed with ice-cold serum free recycling media (2×0.5 mL), resuspended in ice-cold serum free recycling media (1.5 mL), and analyzed by flow cytometry.
These cells were washed with serum free recycling media (2×1 mL) to remove unincorporated receptor (10). These receptor-treated cells were cooled on ice (5 min) to halt recycling and washed with ice-cold back-exchange media (6×1.5 mL×10 min) to selectively remove 10 from the cell surface without affecting the population of 10 in intracellular endosomes. These cells were resuspended in warm back exchange media (37° C., 1.5 mL) to initiate plasma membrane recycling and immediately analyzed by flow cytometry (defined as t=0 min). Cells were isolated by centrifugation, resuspended in warm back exchange media (1.5 mL, 37° C.), incubated at 37° C., and analyzed by flow cytometry as a function of time.
To quantify the rate of plasma membrane recycling, oregon green-derived receptor 10 was employed. Unlike the more strongly cell-associated DNP and NBD-based receptors, the compound 10 binds proteins in cell culture media and can be rapidly and efficiently depleted from cell surfaces by washing cells with “back exchange” media containing bovine serum albumin (BSA, 1%) and methyl-beta-cyclodextrin (Me-beta-CD, 2 mM). This concentration of Me-beta-CD is known to affect neither endocytosis nor plasma membrane recycling. The oregon green-fluorophore of 10 was also chosen for these studies because unlike structurally similar carboxydifluorescein the fluorescence of oregon green is not appreciably quenched in acidic environment of endosomal compartments. […]

[2] = system: Jurkat lymphocytes; assay: Antibody uptake assay and uptake kinetics (flow cytometry); type: cell-based, human; details: for efficiency as mediator of ligand (IgG) uptake: anti-DNP/PrA-AF488, flow cytometry
Procedure: Antibody uptake assays (FIG. 8, Panels A-B, FIG. 10, and FIG. 11). Synthetic receptors 2-9 in DMSO were diluted in RPMI media (0.5 mL, final DMSO concentration=1%) containing Jurkat lymphocytes (1×10^6). These receptor-treated cells were incubated at 37° C. for 1 h, washed with RPMI media (2×0.5 mL) to remove unincorporated receptors/DMSO, and resuspended in fresh media (89 μL). To these cells was added a pre-equilibrated complex (preincubated at 23° C. for 1 h) of anti-DNP IgG (9.6 μg) and the PrA-Alexa Fluor conjugate (PrA-AF488 or PrA-AF633, 3 μg) in phosphate-buffered saline (11 μL, pH 7.4, total volume=100 μL). Cells were typically maintained at 37° C. for 4 h to promote synthetic receptor-mediated endocytosis. Prior to analysis, treated cells were washed with media (0.5 mL), washed again with media containing 6-(2,4-dinitrophenyl)aminohexanoic acid (100 μM, 3×0.5 mL×20 min, 1% DMSO) to compete away any non-internalized protein, washed again with media (0.5 mL), and resuspended in media (0.6 mL) for analysis by epifluorescence microscopy, confocal microscopy, or flow cytometry.
Antibody uptake kinetics (FIG. 8, Panel C). To determine the relative uptake rates shown on the left of FIG. 8C, Jurkat lymphocytes were subjected to the antibody uptake assay (cells were treated with receptors 2-5 at 10 μM for 1 h followed by addition of a pre-equilibrated complex (preincubated at 23° C. for 1 h) of anti-DNP-IgG/PrA-AF488 for 15 min to 4 h) and internalized cellular fluorescence was quantified by flow cytometry. […] Observed rates of ligand uptake (kobs) were calculated with a Michaelis-Menten kinetic model assuming saturating concentrations of substrate (kobs=(Ft−F0)/t). t=time (in minutes), Ft=fluorescence at the specified time, and F0=fluorescence at time=0 min. The slope of plots of fluorescence vs. time provided kobs values that were divided by the basal rate of endocytosis (no receptor) to determine the relative rates of uptake.
These cells were washed with ice-cold media (500 μL) and maintained at 4° C. A pre-equilibrated (1 h at 23° C.) ice-cold solution of RPMI media (100 μL) containing anti-DNP-IgG (7.2 μg) and PrA-AF488 (2 μg) was added. After 1 h at 4° C., the cells were washed with ice-cold RPMI media (2×500 μL). Cells were equilibrated at 37° C. for 20 min prior to fluorescence measurements to dissociate excess surface-bound antibody. After equilibration, uptake experiments were initiated (this was defined as t=0 min). Cells were subsequently incubated at 37° C. for fixed periods of time (0 to 3 h), cooled to 4° C. on ice, and washed with ice-cold RPMI media containing 6-(2,4-dinitrophenyl)aminohexanoic acid (100 μM, 1% DMSO, 3×0.5 mL×10 min at 4° C. followed by 2×0.5 mL×20 min at 23° C.) to remove non-internalized IgG. Intracellular fluorescence was quantified by flow cytometry. Cell surface fluorescence was calculated by subtracting this intracellular fluorescence from cellular fluorescence measured at t=0 min (after the initial equilibration at 37° C. for 20 min; the competition with 6-(2,4-dinitrophenyl)aminohexanoic acid was omitted to analyze this cellular fluorescence).
Synthetic receptors were evaluated as mediators of cellular uptake of protein ligands in living Jurkat lymphocytes, a human T cell line. Confocal laser scanning microscopy and flow cytometry were employed to analyze cells treated with compounds 2-9 for 1 hour followed by addition of anti-DNP IgG complexed with fluorescent conjugates of the IgG-binding protein A (PrA) from S. aureus. […] (FIG. 9, Panel A). This intracellular red fluorescence was 59-fold lower in the absence of receptor 6 consistent with a synthetic receptor-mediated uptake mechanism. The IgG-loaded intracellular compartments were identified as late endosomes and lysosomes by co-localization studies in cells transfected with EGFP-lgp120, a fluorescent protein marker of these compartments.

[3] = system: Jurkat lymphocytes; assay: Cellular stability (cell surface half-life) of receptor; type: cell-based, human; details: 10 μM receptor 1 h, detected with anti-DNP/PrA-AF488
Procedure: Quantification of the cellular stability of receptor 2 (FIG. 9, Panel C). Jurkat lymphocytes (1×10^7) were incubated with receptor 2 in media (5 mL, 10 μM receptor, 1% DMSO) for 1 h at 37° C. in a 15 mL aerated centrifuge tube. Cells were washed with media (2×5 mL) to remove unincorporated receptor, resuspended in media (10 mL), transferred 2) to a tissue culture flask (25 cm^2), and maintained at 37° C. At fixed time points, an aliquot of this culture (1 mL) was removed from the flask and cells isolated by centrifugation. These cells were resuspended in media (89 μL) and a pre-equilibrated (23° C. for 1 h) complex of anti-DNP IgG (9.6 μg) and PrA488 (3 μg) in phosphate buffered saline (PBS, 11 μL, pH 7.4) was added for 5 min at 37° C. Treated cells were centrifuged (1300 g for 2 min), the supernatant was removed, cells were resuspended in media (0.5 mL), and cellular fluorescence was analyzed by flow cytometry. […]
To evaluate the temporal stability of receptor 2 on the cell surface, the half-life of this compound on Jurkat lymphocytes was quantified by addition of a soluble antibody. Cells were treated with this receptor for 1 hour (10 μM), unincorporated receptor was removed by washing cells with fresh media, and the abundance of 2 as a function of time was detected with a green fluorescent anti-DNP/PrA-AF488 complex.

[4] = read-out: affinity for vancomycin (Kd); cited from earlier work
[5] = molecular target: rabbit polyclonal anti-DNP IgG; assay: Fluorescence polarization binding of DNP and NBD derivatives to anti-DNP IgG; details: apparent affinity, PBS pH 7.4, read-out: dissociation constants (Kd)
[6] = 10 μM receptor for 1 hour, anti-DNP/PrA-AF488

## CC(C)CCCC(C)[C@H]1CCC2C3CC=C4CC(NCCCNC(=O)CCNC(=O)c5ccc(-c6c7cc(F)c(=O)cc-7oc7cc(O)c(F)cc67)c(C(=O)O)c5)CC[C@]4(C)C3CC[C@@]21C (stereo partly drawn) [receptor 10]
[1]; 1 μM, back exchange media 37° C., one-phase exponential decay
  recycling half-life: 2.8 ± 0.8 min
[1]; additional/repeated wash steps with back-exchange media
  removal of receptor from the cell surface: > 90%
[1]; four total wash steps with back-exchange media, 1 μM
  loss of total cellular fluorescence: 84%
[1]; single wash with ice-cold back-exchange media, 1 μM
  loss of total cellular fluorescence: 44%

## CC(C)CCC[C@@H](C)[C@H]1CC[C@H]2[C@@H]3CC=C4C[C@@H](NCCCNC(=O)CCNC(=O)CCNC(=O)CCCCCNc5ccc([N+](=O)[O-])cc5[N+](=O)[O-])CC[C@]4(C)[C@H]3CC[C@]12C [receptor 2, N-(3-{[3-({3-[(3β)-cholest-5-en-3-ylamino]propyl}amino)-3-oxopropyl]amino}-3-oxopropyl)-6-[(2,4-dinitrophenyl)amino]hexanamide]
[2]; [6]
  enhancement of cellular uptake of anti-DNP IgG in magnitude compared with basal levels of endocytosis: 208 fold
  enhancement of cellular uptake of anti-DNP IgG in rate compared with basal levels of endocytosis: 391 fold
[2]
  efficiency as mediator of ligand (IgG) uptake: by far the most efficient
[2]; receptor at 1 μM, anti-DNP-IgG/PrA-AF488, 37° C.
  rate of uptake (k): 0.007327 ± 0.000006 min⁻¹
[2]; receptor at 1 μM, calculated as (ln 2)/k
  ligand internalization half-life (t1/2): 1.58 h
[3]
  cell surface half-life: 20 h

## CC(C)CCC[C@@H](C)[C@H]1CC[C@H]2[C@@H]3CC=C4C[C@@H](NCCCNC(=O)CCNC(=O)CCNC(=O)CCCCCNc5ccc([N+](=O)[O-])c6nonc56)CC[C@]4(C)[C@H]3CC[C@]12C [receptor 6, N-(3-{[3-({3-[(3β)-cholest-5-en-3-ylamino]propyl}amino)-3-oxopropyl]amino}-3-oxopropyl)-6-(7-nitrobenzofurazan-4-ylamino)hexanamide]
[2]; 10 μM receptor, red fluorescent anti-DNP IgG/PrA
  intracellular red fluorescence lower in the absence of receptor: 59 fold

## D-Phe-D-Ala [D-Phe-D-Ala dipeptide]
[4]
  Kd: ~7000 nM

## CC(C)CCC[C@@H](C)[C@H]1CC[C@H]2[C@@H]3CC=C4C[C@@H](NCCCNC(=O)CCNC(=O)CCCCCNc5ccc([N+](=O)[O-])cc5[N+](=O)[O-])CC[C@]4(C)[C@H]3CC[C@]12C [receptor 3, N-[3-({3-[(3β)-cholest-5-en-3-ylamino]propyl}amino)-3-oxopropyl]-6-[(2,4-dinitrophenyl)amino]hexanamide]
[2]
  efficiency as mediator of ligand (IgG) uptake: dramatically diminished the effectiveness

## CC(C)CCC[C@@H](C)[C@H]1CC[C@H]2[C@@H]3CC=C4C[C@@H](NC(=O)CCNC(=O)CCCCCNc5ccc([N+](=O)[O-])cc5[N+](=O)[O-])CC[C@]4(C)[C@H]3CC[C@]12C [receptor 5, N-{3-[(3β)-cholest-5-en-3-ylamino]-3-oxopropyl}-6-[(2,4-dinitrophenyl)amino]hexanamide]
[2]
  efficiency as mediator of ligand (IgG) uptake: essentially abolished internalization of IgG
[2]; at 10 μM
  reduction of IgG delivery relative to receptor 4 (secondary amine converted to secondary amide): over 50 fold

## 6-(7-nitrobenzofuran-4-ylamino)hexanoic acid [compound 28, reference compound]
[5]
  Kd: 820 ± 144 nM

## O=C(CCCCCNc1ccc([N+](=O)[O-])cc1[N+](=O)[O-])NCCCNC(=S)Nc1ccc(-c2c3ccc(=O)cc-3oc3cc(O)ccc23)c(C(=O)O)c1 [compound 27]
[5]
  Kd: 23 ± 1.5 nM

## CC(C)CCC[C@@H](C)[C@H]1CC[C@H]2[C@@H]3CC=C4C[C@@H](NCCCNC(=O)CCCCCNc5ccc([N+](=O)[O-])cc5[N+](=O)[O-])CC[C@]4(C)[C@H]3CC[C@]12C [receptor 4, N-{3-[(3β)-cholest-5-en-3-ylamino]propyl}-6-[(2,4-dinitrophenyl)amino]hexanamide]
[2]
  efficiency as mediator of ligand (IgG) uptake: dramatically diminished the effectiveness
